From PMC5540273, “Progress towards a public chemogenomic set for protein kinases and a call for contributions” (PLoS ONE, 2017)

Legend:
Assay in all cases: KINOMEscan competition binding
DYRK2 = target: T1, DYRK2 (Homo sapiens, UniProt Q92630); conditions: read-out: %Inh DYRK2
T1 sequence (Q92630 1-601): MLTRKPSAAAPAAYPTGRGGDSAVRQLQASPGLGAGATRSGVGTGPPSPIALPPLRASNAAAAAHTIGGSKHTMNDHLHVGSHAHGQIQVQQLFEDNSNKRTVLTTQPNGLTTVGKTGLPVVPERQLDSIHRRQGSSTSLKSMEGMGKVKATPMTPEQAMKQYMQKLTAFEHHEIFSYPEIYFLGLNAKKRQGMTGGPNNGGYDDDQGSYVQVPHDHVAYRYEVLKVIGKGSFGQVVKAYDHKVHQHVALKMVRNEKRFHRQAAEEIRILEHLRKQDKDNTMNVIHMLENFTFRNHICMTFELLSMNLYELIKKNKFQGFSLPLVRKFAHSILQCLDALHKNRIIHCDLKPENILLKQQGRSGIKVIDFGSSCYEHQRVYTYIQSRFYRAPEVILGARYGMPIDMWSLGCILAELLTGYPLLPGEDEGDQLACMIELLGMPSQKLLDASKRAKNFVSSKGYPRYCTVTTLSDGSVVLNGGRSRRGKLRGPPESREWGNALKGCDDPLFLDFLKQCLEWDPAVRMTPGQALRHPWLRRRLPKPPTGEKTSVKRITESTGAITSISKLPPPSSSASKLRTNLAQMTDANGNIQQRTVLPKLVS

LCK = LCK (Homo sapiens, UniProt P06239); conditions: read-out: %Inh LCK
LZK = target: T2, LZK (Homo sapiens, UniProt O43283); conditions: read-out: %Inh LZK
T2 sequence (O43283 1-966): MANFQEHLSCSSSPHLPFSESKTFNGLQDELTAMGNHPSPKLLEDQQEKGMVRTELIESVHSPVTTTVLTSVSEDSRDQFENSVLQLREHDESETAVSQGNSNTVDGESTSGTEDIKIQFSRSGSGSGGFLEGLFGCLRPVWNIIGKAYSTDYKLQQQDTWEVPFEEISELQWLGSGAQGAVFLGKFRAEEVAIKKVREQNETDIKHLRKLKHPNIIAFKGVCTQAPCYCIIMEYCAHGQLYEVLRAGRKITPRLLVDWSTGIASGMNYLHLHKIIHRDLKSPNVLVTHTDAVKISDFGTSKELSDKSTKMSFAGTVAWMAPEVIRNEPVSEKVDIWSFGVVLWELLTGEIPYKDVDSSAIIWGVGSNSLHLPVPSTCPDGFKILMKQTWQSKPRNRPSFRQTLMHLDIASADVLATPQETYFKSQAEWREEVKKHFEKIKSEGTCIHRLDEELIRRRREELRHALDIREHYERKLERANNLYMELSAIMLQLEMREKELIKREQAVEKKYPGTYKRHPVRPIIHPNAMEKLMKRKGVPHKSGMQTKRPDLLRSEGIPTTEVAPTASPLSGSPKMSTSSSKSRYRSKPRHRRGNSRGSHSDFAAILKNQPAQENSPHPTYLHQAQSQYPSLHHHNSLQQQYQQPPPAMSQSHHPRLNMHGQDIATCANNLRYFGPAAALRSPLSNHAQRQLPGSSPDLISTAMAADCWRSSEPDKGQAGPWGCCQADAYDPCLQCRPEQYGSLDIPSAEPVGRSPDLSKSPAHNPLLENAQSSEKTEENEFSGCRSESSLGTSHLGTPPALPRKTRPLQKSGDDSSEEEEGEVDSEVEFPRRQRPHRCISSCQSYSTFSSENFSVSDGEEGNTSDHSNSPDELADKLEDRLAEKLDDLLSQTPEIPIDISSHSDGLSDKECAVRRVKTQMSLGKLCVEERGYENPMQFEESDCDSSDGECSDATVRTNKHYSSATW

EPHA7 = EPHA7 (Homo sapiens, UniProt Q15375); conditions: read-out: %Inh EPHA7
AURKC = target: T3, AURKC (Homo sapiens, UniProt Q9UQB9); conditions: read-out: %Inh AURKC
T3 sequence (Q9UQB9 1-309): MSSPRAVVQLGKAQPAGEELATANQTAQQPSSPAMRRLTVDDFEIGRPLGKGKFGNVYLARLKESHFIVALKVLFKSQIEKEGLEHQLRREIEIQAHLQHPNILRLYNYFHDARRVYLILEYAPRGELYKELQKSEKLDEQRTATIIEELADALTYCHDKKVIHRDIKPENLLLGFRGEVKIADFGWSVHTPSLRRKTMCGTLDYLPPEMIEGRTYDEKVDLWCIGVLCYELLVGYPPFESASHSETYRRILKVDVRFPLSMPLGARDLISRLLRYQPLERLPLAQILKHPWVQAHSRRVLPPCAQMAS

ACVR1 = target: T4, ACVR1 (Homo sapiens, UniProt Q04771); conditions: read-out: %Inh ACVR1
T4 sequence (Q04771 21-509): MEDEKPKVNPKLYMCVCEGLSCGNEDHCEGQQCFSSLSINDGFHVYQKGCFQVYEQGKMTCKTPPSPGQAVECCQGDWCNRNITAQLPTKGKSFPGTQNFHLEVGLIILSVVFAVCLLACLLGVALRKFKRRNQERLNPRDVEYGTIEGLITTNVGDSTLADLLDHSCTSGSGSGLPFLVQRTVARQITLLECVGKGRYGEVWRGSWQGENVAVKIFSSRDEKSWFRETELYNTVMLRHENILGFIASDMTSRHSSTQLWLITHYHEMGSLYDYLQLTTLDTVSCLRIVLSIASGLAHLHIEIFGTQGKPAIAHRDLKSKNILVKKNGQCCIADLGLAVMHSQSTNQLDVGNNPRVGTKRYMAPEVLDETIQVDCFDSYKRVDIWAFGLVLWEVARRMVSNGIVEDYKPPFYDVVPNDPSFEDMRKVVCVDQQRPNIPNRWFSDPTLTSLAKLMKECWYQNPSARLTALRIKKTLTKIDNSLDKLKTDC

INSR = INSR (Homo sapiens, UniProt P06213); conditions: read-out: %Inh INSR
DAPK3 = DAPK3 (Homo sapiens, UniProt O43293); conditions: read-out: %Inh DAPK3
Chain of DAPK3 (O43293 whole entry): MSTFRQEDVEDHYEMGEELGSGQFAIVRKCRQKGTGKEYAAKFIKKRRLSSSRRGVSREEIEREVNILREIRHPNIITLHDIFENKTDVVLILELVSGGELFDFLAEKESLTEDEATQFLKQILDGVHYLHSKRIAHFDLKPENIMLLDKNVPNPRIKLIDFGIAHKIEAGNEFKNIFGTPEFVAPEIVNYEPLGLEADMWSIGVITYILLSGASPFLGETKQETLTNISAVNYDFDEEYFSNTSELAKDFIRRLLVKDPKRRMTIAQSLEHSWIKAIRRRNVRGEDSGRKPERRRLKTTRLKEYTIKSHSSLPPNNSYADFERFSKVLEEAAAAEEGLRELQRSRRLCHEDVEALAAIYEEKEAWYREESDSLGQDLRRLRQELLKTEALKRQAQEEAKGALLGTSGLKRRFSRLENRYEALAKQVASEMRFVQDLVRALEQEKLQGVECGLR

Chain of EPHA7 (Q15375 28-998): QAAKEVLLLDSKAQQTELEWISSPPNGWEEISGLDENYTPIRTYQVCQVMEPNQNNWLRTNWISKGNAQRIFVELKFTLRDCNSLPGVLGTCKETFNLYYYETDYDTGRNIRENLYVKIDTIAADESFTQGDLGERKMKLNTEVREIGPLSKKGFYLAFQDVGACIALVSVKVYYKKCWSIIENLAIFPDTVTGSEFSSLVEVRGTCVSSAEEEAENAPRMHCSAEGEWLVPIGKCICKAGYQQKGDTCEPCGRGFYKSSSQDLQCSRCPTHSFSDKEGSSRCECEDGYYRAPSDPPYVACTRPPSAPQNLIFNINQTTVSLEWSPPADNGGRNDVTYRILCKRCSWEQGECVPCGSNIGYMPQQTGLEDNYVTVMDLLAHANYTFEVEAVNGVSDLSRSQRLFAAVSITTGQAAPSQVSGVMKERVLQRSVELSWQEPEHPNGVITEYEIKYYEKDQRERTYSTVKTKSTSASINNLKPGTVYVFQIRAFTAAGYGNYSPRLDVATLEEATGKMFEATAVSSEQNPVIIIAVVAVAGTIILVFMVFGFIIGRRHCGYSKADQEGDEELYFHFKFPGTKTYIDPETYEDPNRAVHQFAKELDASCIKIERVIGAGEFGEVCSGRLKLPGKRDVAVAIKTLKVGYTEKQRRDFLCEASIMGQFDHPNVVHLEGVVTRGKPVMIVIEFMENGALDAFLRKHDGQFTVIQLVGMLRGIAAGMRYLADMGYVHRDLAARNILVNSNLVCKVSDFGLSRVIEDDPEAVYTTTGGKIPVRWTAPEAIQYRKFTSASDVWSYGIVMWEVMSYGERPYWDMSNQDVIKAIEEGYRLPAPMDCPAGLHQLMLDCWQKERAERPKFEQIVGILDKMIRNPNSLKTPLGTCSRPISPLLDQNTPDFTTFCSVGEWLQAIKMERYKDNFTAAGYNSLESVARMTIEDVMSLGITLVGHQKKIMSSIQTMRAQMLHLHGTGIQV
Chain of LCK (P06239 whole entry): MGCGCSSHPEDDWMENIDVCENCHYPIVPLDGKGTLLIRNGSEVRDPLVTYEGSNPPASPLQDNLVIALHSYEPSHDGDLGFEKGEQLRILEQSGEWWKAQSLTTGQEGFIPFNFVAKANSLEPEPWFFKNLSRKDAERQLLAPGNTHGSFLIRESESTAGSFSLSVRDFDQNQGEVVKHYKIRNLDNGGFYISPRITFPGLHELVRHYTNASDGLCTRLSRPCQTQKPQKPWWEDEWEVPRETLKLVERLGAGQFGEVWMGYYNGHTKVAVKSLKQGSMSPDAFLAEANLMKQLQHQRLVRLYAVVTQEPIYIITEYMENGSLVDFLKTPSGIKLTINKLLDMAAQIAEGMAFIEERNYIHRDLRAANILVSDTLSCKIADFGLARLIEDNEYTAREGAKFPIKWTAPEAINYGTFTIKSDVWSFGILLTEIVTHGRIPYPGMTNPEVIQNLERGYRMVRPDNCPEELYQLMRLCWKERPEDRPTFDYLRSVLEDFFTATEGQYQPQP
Chain of INSR (P06213 28-1382): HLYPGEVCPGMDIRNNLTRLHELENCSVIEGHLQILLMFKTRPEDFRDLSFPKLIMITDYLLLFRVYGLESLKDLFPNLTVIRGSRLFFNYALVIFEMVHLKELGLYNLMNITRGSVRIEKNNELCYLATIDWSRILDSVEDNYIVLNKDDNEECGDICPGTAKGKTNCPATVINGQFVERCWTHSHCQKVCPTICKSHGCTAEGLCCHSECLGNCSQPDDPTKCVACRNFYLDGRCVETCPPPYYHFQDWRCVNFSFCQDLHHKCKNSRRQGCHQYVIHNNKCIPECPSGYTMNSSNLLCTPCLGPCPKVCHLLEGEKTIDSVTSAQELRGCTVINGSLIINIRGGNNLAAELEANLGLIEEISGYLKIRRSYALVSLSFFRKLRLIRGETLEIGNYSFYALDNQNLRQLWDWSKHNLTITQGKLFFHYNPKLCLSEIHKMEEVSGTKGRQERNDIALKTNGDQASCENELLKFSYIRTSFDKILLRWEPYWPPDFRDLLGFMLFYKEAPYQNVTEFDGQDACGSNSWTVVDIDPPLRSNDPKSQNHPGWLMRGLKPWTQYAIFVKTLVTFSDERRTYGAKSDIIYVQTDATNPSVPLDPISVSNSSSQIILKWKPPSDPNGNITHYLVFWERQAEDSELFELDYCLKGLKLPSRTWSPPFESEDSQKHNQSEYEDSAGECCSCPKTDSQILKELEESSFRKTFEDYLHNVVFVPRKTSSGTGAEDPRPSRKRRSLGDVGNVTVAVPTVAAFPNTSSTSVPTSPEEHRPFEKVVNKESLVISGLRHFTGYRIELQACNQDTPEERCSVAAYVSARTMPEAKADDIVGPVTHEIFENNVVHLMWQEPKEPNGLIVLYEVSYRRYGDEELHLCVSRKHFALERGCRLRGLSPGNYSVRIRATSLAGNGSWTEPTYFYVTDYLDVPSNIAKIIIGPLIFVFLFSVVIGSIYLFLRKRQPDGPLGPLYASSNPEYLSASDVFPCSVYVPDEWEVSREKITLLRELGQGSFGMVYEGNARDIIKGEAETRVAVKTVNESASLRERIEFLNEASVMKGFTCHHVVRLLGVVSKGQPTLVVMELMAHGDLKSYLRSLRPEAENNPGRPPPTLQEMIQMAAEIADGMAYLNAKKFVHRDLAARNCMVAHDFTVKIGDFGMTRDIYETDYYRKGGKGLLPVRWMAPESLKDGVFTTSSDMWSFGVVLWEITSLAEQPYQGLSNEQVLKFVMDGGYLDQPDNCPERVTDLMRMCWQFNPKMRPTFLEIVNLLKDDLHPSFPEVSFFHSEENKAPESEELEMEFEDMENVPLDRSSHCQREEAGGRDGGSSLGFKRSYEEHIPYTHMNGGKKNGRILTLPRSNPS

| SMILES | inhibition at 1 µM (DYRK2) [%] | inhibition at 1 µM (LCK) [%] | inhibition at 1 µM (LZK) [%] | inhibition at 1 µM (EPHA7) [%] | inhibition at 1 µM (AURKC) [%] | inhibition at 1 µM (ACVR1) [%] | inhibition at 1 µM (INSR) [%] | inhibition at 1 µM (DAPK3) [%] |
| --- | --- | --- | --- | --- | --- | --- | --- | --- |
| CS(=O)(=O)Cc1ccc(Nc2nccc(-c3c(-c4cccc(NC(=O)C5CCCCC5)c4)nn4ncccc34)n2)cc1 [UNC10225159A] | 5 | 23 | 0 | 15 | 49 | 18 | 42 | 0 |
| Cn1cc(-c2cnc(N)c3c(-c4ccc5c(c4)CCN5C(=O)Cc4ccccc4)csc23)cn1 [UNC10225012A] | 8 | 93.8 | 0 | 6 | 92.2 | 7 | 12 | 7 |
| O=c1cc(N2CCOCC2)nc2n(Cc3cccc(Cl)c3Cl)c(C3CC3)nn12 [UNC10225469A] | 1 | 23 | 0 | 0 | 0 | 0 | 0 | 6 |
| COc1cccc(OC)c1C(=O)Nc1cccc(-c2nn3ccccc3c2-c2ccnc(Nc3cccc(F)c3)n2)c1 [UNC10225310A] | 0 | 24 | 8 | 14 | 70 | 17 | 0 | 0 |
| Cc1ccc(NC(=O)Nc2cccc(C(F)(F)F)c2)cc1 [UNC10225187A] | 0 | 6 | 0 | 2 | 19 | 10 | 0 | 24 |
